Data published in ChEMBL document CHEMBL3745645, “Synthesis, in vitro antitumor activity, dihydrofolate reductase inhibition, DNA intercalation and structure-activity relationship studies of 1,3,5-triazine analogues” (Bioorg Med Chem Lett, 2016).
Activity calls are given as the source filed them. The calls are words filed in the database; no cut-off is given here.

How the values were obtained:
[1] = Cytotoxicity against human RPMI8226 cells after 48 hrs by SRB assay; format: functional; settings: RPMI-8226, 48 h, read-out: LC50 (the source's name)
[2] = test system: HL-60(TB); test: Cytotoxicity against human HL-60(TB) cells at 10 uM after 48 hrs by SRB assay; format: functional
[3] = test system: RXF 393; test: Cytotoxicity against human RXF393 cells at 10 uM after 48 hrs by SRB assay; format: functional
[4] = test system: T47D; test: Cytotoxicity against human T47D cells at 10 uM after 48 hrs by SRB assay; format: functional
[5] = test system: UACC-62; test: Cytotoxicity against human UACC62 cells at 10 uM after 48 hrs by SRB assay; format: functional
[6] = test system: MDA-MB-231; test: Cytotoxicity against human MDA-MB-231 cells at 10 uM after 48 hrs by SRB assay; format: functional
[7] = test system: KM12; test: Cytotoxicity against human KM12 cells at 10 uM after 48 hrs by SRB assay; format: functional
[8] = test system: ACHN; test: Cytotoxicity against human ACHN cells at 10 uM after 48 hrs by SRB assay; format: functional; settings: read-out: GI
[9] = test system: HCC 2998; test: (§1) Cytotoxicity against human HCC2998 cells at 10 uM after 48 hrs by SRB assay; format: functional
[10] = test system: BT-549; test: (§2) Cytotoxicity against human BT549 cells at 10 uM after 48 hrs by SRB assay; format: functional
[11] = test system: NCI-H460; test: Cytotoxicity against human NCI-H460 cells at 10 uM after 48 hrs by SRB assay; format: functional
[12] = test system: LOX IMVI; test: Cytotoxicity against human LOXIMVI cells at 10 uM after 48 hrs by SRB assay; format: functional
[13] = test system: SK-MEL-28; test: Cytotoxicity against human SK-MEL-28 cells at 10 uM after 48 hrs by SRB assay; format: functional
[14] = test system: RPMI-8226; test: Cytotoxicity against human RPMI8226 cells at 10 uM after 48 hrs by SRB assay; format: functional
[15] = Cytotoxicity against human SNB19 cells at 10 uM after 48 hrs by SRB assay; format: functional; settings: SNB-19, 48 h, read-out: GI
[16] = test system: SK-MEL-2; test: Cytotoxicity against human SK-MEL-2 cells at 10 uM after 48 hrs by SRB assay; format: functional
[17] = test system: SNB-75; test: Cytotoxicity against human SNB75 cells at 10 uM after 48 hrs by SRB assay; format: functional
[18] = Cytotoxicity against human OVCAR4 cells at 10 uM after 48 hrs by SRB assay; format: functional; settings: OVCAR-4, 48 h, read-out: GI
[19] = test system: Calf thymus DNA; test: Binding affinity to calf thymus DNA by fluorescence spectrophotometric analysis; format: nucleic-acid assay; settings: Bos taurus
[20] = test system: UACC-257; test: (§3) Cytotoxicity against human UACC257 cells at 10 uM after 48 hrs by SRB assay; format: functional
[21] = Cytotoxicity against human IGROV1 cells after 48 hrs by SRB assay; format: functional; settings: IGROV-1, 48 h, pooled result: one value given for 7 cell lines, strains, targets or settings
[22] = test system: TK-10; test: (§4) Cytotoxicity against human TK10 cells at 10 uM after 48 hrs by SRB assay; format: functional
[23] = test system: MOLT-4; test: Cytotoxicity against human MOLT4 cells at 10 uM after 48 hrs by SRB assay; format: functional
[24] = test system: MDA-MB-435; test: Cytotoxicity against human MDA-MB-435 cells at 10 uM after 48 hrs by SRB assay; format: functional
[25] = test system: HCT-15; test: (§5) Cytotoxicity against human HCT15 cells at 10 uM after 48 hrs by SRB assay; format: functional
[26] = test system: U-251; test: Cytotoxicity against human U251 cells at 10 uM after 48 hrs by SRB assay; format: functional
[27] = test system: OVCAR-5; test: Cytotoxicity against human OVCAR5 cells at 10 uM after 48 hrs by SRB assay; format: functional
[28] = Cytotoxicity against human COLO205 cells after 48 hrs by SRB assay; format: functional; settings: COLO 205, 48 h, pooled result: one value given for 7 cell lines, strains, targets or settings
[29] = test system: MCF7; test: Cytotoxicity against human MCF7 cells at 10 uM after 48 hrs by SRB assay; format: functional; settings: MCF7, 48 h, read-out: GI
[30] = test system: Calf thymus DNA; test: Binding affinity to calf thymus DNA by UV-vis spectrometric analysis; format: nucleic-acid assay; settings: Bos taurus
[31] = test system: SF-295; test: (§6) Cytotoxicity against human SF295 cells at 10 uM after 48 hrs by SRB assay; format: functional
[32] = test system: MDA-MB-468; test: Cytotoxicity against human MDA-MB-468 cells at 10 uM after 48 hrs by SRB assay; format: functional
[33] = test system: SK-MEL-5; test: Cytotoxicity against human SK-MEL-5 cells at 10 uM after 48 hrs by SRB assay; format: functional
[34] = Cytotoxicity against human UO31 cells at 10 uM after 48 hrs by SRB assay; format: functional; settings: UO-31, 48 h, read-out: GI
[35] = Cytotoxicity against human HOP92 cells at 10 uM after 48 hrs by SRB assay; format: functional; settings: HOP-92, 48 h, read-out: GI
[36] = as §1; format: functional; settings: HCC 2998, 48 h, read-out: GI
[37] = Cytotoxicity against human HOP62 cells at 10 uM after 48 hrs by SRB assay; format: functional; settings: HOP-62, 48 h, read-out: GI
[38] = Cytotoxicity against human OVCAR8 cells at 10 uM after 48 hrs by SRB assay; format: functional; settings: OVCAR-8, 48 h, read-out: GI
[39] = as §2; format: functional; settings: BT-549, 48 h, read-out: GI
[40] = Cytotoxicity against human Caki1 cells at 10 uM after 48 hrs by SRB assay; format: functional; settings: CAKI-1, 48 h, read-out: GI
[41] = Cytotoxicity against human HCT116 cells at 10 uM after 48 hrs by SRB assay; format: functional; settings: HCT-116, 48 h, read-out: GI
[42] = as §3; format: functional; settings: UACC-257, 48 h, read-out: GI
[43] = as §4; format: functional; settings: TK-10, 48 h, read-out: GI
[44] = as §5; format: functional; settings: HCT-15, 48 h, read-out: GI
[45] = Cytotoxicity against human NCI-ADR-RES cells at 10 uM after 48 hrs by SRB assay; format: functional; settings: read-out: GI
[46] = as §6; format: functional; settings: SF-295, 48 h, read-out: GI

For `Cc1nc2cc(Nc3nc(Nc4ccc(F)cc4)nc(N4CCCC4)n3)ccc2n1Cc1ccccc1`, the CC50 [1] was > 100 µM, the “growth inhibition (GI)” value [2] was “Active” and the “growth inhibition (GI)” value [3] was “Active”. For the same molecule, the “growth inhibition (GI)” value [4] was “Active”, the “growth inhibition (GI)” value [5] was “Active” and the “growth inhibition (GI)” value [6] was “Active”. The “growth inhibition (GI)” value [7] was “Active”, the inhibition of growth at 10 µM [8] was 88.5% and the “growth inhibition (GI)” value [9] was “Active”. The “growth inhibition (GI)” value [10] was “Active”, the “growth inhibition (GI)” value [11] was “Active” and the “growth inhibition (GI)” value [12] was “Active”. For the same molecule, the “growth inhibition (GI)” value [13] was “Active”, the “growth inhibition (GI)” value [14] was “Active” and the inhibition of growth at 10 µM [15] was 66.4%. For the same molecule, the “growth inhibition (GI)” value [16] was “Active”, the “growth inhibition (GI)” value [17] was “Active” and the inhibition of growth at 10 µM [18] was 95.2%. For the same molecule, the Ka [19] was 5.46 ×10⁴ /M, the “growth inhibition (GI)” value [20] was “Active” and the GI50 [21] was 1.9 µM. For the same molecule, the LC50 (concentration killing 50% of cells) [21] was 11 µM, the TGI [21] was 4.01 µM and the “growth inhibition (GI)” value [22] was “Active”. The “growth inhibition (GI)” value [23] was “Active”, the “growth inhibition (GI)” value [24] was “Active” and the “growth inhibition (GI)” value [25] was “Active”. The “growth inhibition (GI)” value [26] was “Active”, the “growth inhibition (GI)” value [27] was “Active” and the GI50 [28] was 1.81 µM. The LC50 [28] was 6.93 µM, the TGI [28] was 3.54 µM and the inhibition of growth at 10 µM [29] was 97%. The Ka [30] was 5.23 ×10⁴ /M, the “growth inhibition (GI)” value [31] was “Active” and the “growth inhibition (GI)” value [32] was “Active”. The “growth inhibition (GI)” value [33] was “Active”.
In the case of `COc1ccc(-c2nc(Nc3ccc(F)cc3)nc(Nc3ccc4c(c3)nc(C)n4Cc3ccccc3)n2)cc1`, the CC50 [1] was > 100 µM, the “growth inhibition (GI)” value [2] was “Active” and the inhibition of growth at 10 µM ([4]; read-out: GI) was 88.5%. The inhibition of growth at 10 µM [34] was 70.7%, the inhibition of growth at 10 µM ([6]; MDA-MB-231, 48 h, read-out: GI) was 68.8% and the inhibition of growth at 10 µM ([7]; KM12, 48 h, read-out: GI) was 74%. For the same molecule, the inhibition of growth at 10 µM [35] was 60.3%, the inhibition of growth at 10 µM [8] was 62.9% and the inhibition of growth at 10 µM [36] was 54.5%. For the same molecule, the inhibition of growth at 10 µM [37] was 46.7%, the inhibition of growth at 10 µM [38] was 82.1% and the inhibition of growth at 10 µM [39] was 29.3%. For the same molecule, the inhibition of growth at 10 µM ([11]; NCI-H460, 48 h, read-out: GI) was 69.7%, the inhibition of growth at 10 µM ([13]; SK-MEL-28, 48 h, read-out: GI) was 43.5% and the “growth inhibition (GI)” value [14] was “Active”. For the same molecule, the inhibition of growth at 10 µM [40] was 16.8%, the inhibition of growth at 10 µM [15] was 39.3% and the inhibition of growth at 10 µM ([16]; SK-MEL-2, 48 h, read-out: GI) was 51.8%. For the same molecule, the inhibition of growth at 10 µM [18] was 57.4%, the Ka [19] was 1.5 ×10⁴ /M and the inhibition of growth at 10 µM [41] was 76.6%. For the same molecule, the inhibition of growth at 10 µM [42] was 56.2%, the GI50 [21] was 4.79 µM and the LC50 (concentration killing 50% of cells) [21] was > 100 µM. For the same molecule, the TGI [21] was 40.5 µM, the inhibition of growth at 10 µM [43] was 25.1% and the “growth inhibition (GI)” value [23] was “Active”. The inhibition of growth at 10 µM ([24]; MDA-MB-435, 48 h, read-out: GI) was 65.9%, the inhibition of growth at 10 µM [44] was 66.6% and the inhibition of growth at 10 µM ([26]; U-251, 48 h, read-out: GI) was 60.8%. The GI50 [28] was 3.52 µM, the LC50 [28] was 18.2 µM and the TGI [28] was 14.4 µM. For the same molecule, the inhibition of growth at 10 µM [45] was 73.4%, the inhibition of growth at 10 µM [29] was 77.4% and the Ka [30] was 2.96 ×10⁴ /M. It also gave an inhibition of growth at 10 µM [46] of 51%, an inhibition of growth at 10 µM ([32]; MDA-MB-468, 48 h, read-out: GI) of 71.6% and an inhibition of growth at 10 µM ([33]; SK-MEL-5, 48 h, read-out: GI) of 52.9%.
